Laboratory results reported in publication PMC12169609, “Efficient Crystallization of Apo Sirt2 for Small-Molecule Soaking and Structural Analysis of Ligand Interactions” (Journal of Medicinal Chemistry, 2025).

Assays:
Sirt2 = details: published Sirt2 inhibitors; no assay or reference printed at the place; cited from earlier work
Sirt2_56–356 [1] = target: T1, Sirt2_56–356 (Homo sapiens, UniProt Q8IXJ6); experiment: Fluorescence polarization assay (FPA), displacement of SirReal-TAMRA probe; assay type: binding; details: for FP-Assay Inhibition (%) at 125 µM / inhibition at 125 µM: 125 µM compound; for FP-Assay Inhibition (%) at 500 µM / inhibition at 500 µM: 500 µM compound; for FP-Assay Inhibition (%) at 2000 µM / inhibition at 2000 µM: 2000 µM compound; for IC50: 200 nM Sirt2, 40 nM SirReal-TAMRA, 5% DMSO; for inhibition at 125 µM: read-out: FP-Assay Inhibition (%) at 125 µM; for inhibition at 500 µM: read-out: FP-Assay Inhibition (%) at 500 µM; for inhibition at 2000 µM: read-out: FP-Assay Inhibition (%) at 2000 µM
T1 construct: human strep-tagged Sirt2_56–356 was expressed and purified; strep-tag; made in house
T1 sequence (Q8IXJ6 56-356): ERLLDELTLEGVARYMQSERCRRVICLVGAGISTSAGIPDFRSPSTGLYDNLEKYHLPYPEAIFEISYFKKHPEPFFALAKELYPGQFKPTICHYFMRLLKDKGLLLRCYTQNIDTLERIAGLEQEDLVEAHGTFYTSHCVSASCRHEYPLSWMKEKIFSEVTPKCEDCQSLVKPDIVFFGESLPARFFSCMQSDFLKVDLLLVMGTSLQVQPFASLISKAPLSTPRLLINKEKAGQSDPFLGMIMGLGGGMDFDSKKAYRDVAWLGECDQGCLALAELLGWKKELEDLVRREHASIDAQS
Procedure: Blank controls contained 19 μL of assay buffer and 1 μL DMSO. Negative controls (P neg) used 1 μL Mz242 (20 μM final concentration), while positive controls (Ppos) replaced the inhibitor with 1 μL DMSO. […] Fluorescence intensities were measured with an EnVision plate reader (PerkinElmer, optical module – BODIPY TMR FP, excitation filter – FP 531 nm, emission filter 1 – FP p-pol 595 nm, emission filter 2 – FP s-pol 595 nm). Inhibition was calculated using the equation reported below (P I, P neg, and P pos are FP values of samples, […], respectively). I=100×(1−(PI−Pneg/Ppos−Pneg))%

Sirt2_56–356 [2] = target: T1, Sirt2_56–356; experiment: Fluorescence thermal shift assay (DSF); assay type: binding; details: 6.0 μM Sirt2; for FTS-Assay Thermal shift at 1000 µM / ΔTm at 1000 µM: 1000 µM compound; for ΔTm at 1000 µM: read-out: FTS-Assay Thermal shift at 1000 µM
Procedure: Fluorescence thermal shift assays were performed in white 96-well plates (Hard-Shell PCR Plates, BioRad, USA) with a total volume of 20 μL and a final DMSO concentration of 5% (v/v), following a published protocol. ,
Melting temperatures were determined using GraphPad Prism, following a published procedure.

[3] = Precipitation observed in the FP assay IC50 determination; assay type: physicochemical; details: FP assay buffer, 5% DMSO
From the text: Figure S3: (A) Superimposition of Sirt2 apo (salmon, PDB 9FDR) with Sirt2-Mz242 (Sirt2 = yellow-orange, Mz242 = yellow, PDB 8OWZ).4 All amino acids that are involved in the formation of the selectivity pocket align very well. However, Phe96 and Arg97 from the cofactor binding loop show a different orientation, resulting from the presence or absence of Mz242. (B) Superimposition of Sirt2-KT9 (Sirt2 = wheat, KT9 = firebrick, PDB 9FDX) with NAD+ (gray) from PDB 4RMG. In the presented KT9 orientation, the close distance of the amide C=O of KT9 and the ribose moiety of NAD+ (highlighted as black circle) would result in steric clashes that prevent simultaneous binding.
Figure S4: IC50 curves of compounds 1-3 in a previously reported Sirt2 binding assay based on fluorescence polarization.5 At concentrations exceeding 1000 µM, 1 started to precipitate, thus limiting the maximum inhibition to 70%. […]

Structure (SMILES) | FP-Assay Inhibition (%) at 125 µM (Sirt2_56–356 [1]) | FP-Assay Inhibition (%) at 500 µM (Sirt2_56–356 [1]) | FP-Assay Inhibition (%) at 2000 µM (Sirt2_56–356 [1]) | FTS-Assay Thermal shift at 1000 µM (Sirt2_56–356 [2]) | FTS-Assay Thermal shift at 2000 µM (Sirt2_56–356 [2]; 2000 µM compound) | also measured
COCCn1cc(COc2cccc(Cc3cnc(NC(=O)CSc4nc(C)cc(C)n4)s3)c2)nn1 [Mz242] | – | – | – | – | – | IC50 (Sirt2): 0.12 µM
CC(=O)Nc1ccc2c(c1)CCC2 [No. 4] | 32.8 ± 4.3% | 61.1 ± 6.5% | 78.5 ± 7.5% | 1.1 °C | 0.1 °C | –
CN(C(=O)c1cccs1)C1CC2CCC1C2 (stereo not shown) [No. 5] | -7.4 ± 8.3% | 10.3 ± 6.0% | 43.8 ± 10.1% | 0.5 °C | 0.7 °C | –
CC1Sc2ccccc2NC(=O)C1C (stereo not shown) [No. 6] | 20.2 ± 2.9% | 59.9 ± 7.9% | 101.0 ± 4.7% | 1.5 °C | – | –
COC(=O)c1sccc1-n1cccc1 [No. 7] | 11.5 ± 5.5% | 46.9 ± 4.3% | 76.2 ± 1.8% | 0.8 °C | 0.5 °C | –
C#Cc1ccc(-c2cnco2)cc1 [No. 8] | 19.1 ± 4.6% | 61.2 ± 3.3% | – | 0.9 °C | 0.0 °C | –
N#CCOc1cc(Cl)cc(Cl)c1 [No. 10] | 19.3 ± 10.5% | 53.9 ± 8.2% | 90.3 ± 14.7% | 0.7 °C | – | –
Nc1ccccc1-c1cccs1 [No. 12] | 33.2 ± 10.3% | 66.4 ± 3.2% | 104.2 ± 3.2% | – | 0.0 °C | –
CNCc1ccc(N2CCOCC2)s1 [No. 13] | 19.9 ± 3.1% | 49.3 ± 4.1% | 95.1 ± 3.5% | – | – | –
c1ccc2c(CN3CCOCC3)csc2c1 [No. 14] | 24.3 ± 3.5% | 42.5 ± 2.9% | 91.9 ± 13.9% | 1.3 °C | 0.7 °C | –
Clc1ccc2ncccc2c1 [No. 15] | 6.3 ± 7.4% | 36.2 ± 6.5% | 87.3 ± 6.8% | 0.7 °C | 0.2 °C | –
CCOC(=O)Cc1ccc(OC)cc1 [No. 16] | 23.1 ± 3.9% | 50.5 ± 5.4% | – | 0.5 °C | 0.4 °C | –
CCOC(=O)Cc1cccc(Cl)c1 [No. 17] | 24.7 ± 4.0% | 63.8 ± 2.4% | 99.7 ± 4.6% | 0.9 °C | 0.9 °C | –
Cc1ccc(=O)n(Cc2ccc(Cl)cc2)n1 [No. 18] | 11.3 ± 3.2% | 41.9 ± 7.0% | 90.8 ± 2.8% | 1.3 °C | 0.1 °C | –
CC1(C)CC(=O)c2c(SCCO)sc(C#N)c2C1 [No. 19] | 8.2 ± 4.9% | 40.9 ± 5.6% | 91.5 ± 1.7% | – | – | –
Nc1nc(-c2ccc(F)c(F)c2)cs1 [No. 20] | -0.9 ± 6.3% | 38.8 ± 4.6% | 91.3 ± 3.2% | – | 0.0 °C | –
CCOC(=O)c1cccc(-c2nccs2)c1 [No. 21] | 41.8 ± 5.9% | 91.4 ± 2.5% | 97.0 ± 6.2% | 0.9 °C | – | –
CC(=O)c1c(O)cccc1OCCC(C)C [No. 22] | 57.6 ± 7.3% | 74.2 ± 4.2% | 56.5 ± 2.8% | 1.9 °C | 1.6 °C | –
NC(=S)c1ccc(OCC(F)(F)F)nc1 [compound 1] | – | – | – | – | – | IC50 (Sirt2_56–356 [1]): 286 ± 10 µM; inhibition at 125 µM (Sirt2_56–356 [1]): 26.5 ± 5.8%; inhibition at 500 µM (Sirt2_56–356 [1]): 55.4 ± 4.3%; inhibition at 2000 µM (Sirt2_56–356 [1]): 74.2 ± 3.1%; ΔTm at 1000 µM (Sirt2_56–356 [2]): 0.3 °C; ΔTm at 2000 µM (Sirt2_56–356 [2]; 2000 µM compound, read-out: FTS-Assay Thermal shift at 2000 µM): 0.6 °C; concentration above which compound started to precipitate [3]: exceeding 1000 µM
O=C(NCc1ccccn1)c1cccc(Cl)c1 [compound 3] | – | – | – | – | – | IC50 (Sirt2_56–356 [1]): 565 ± 95 µM; inhibition at 125 µM (Sirt2_56–356 [1]): 15.1 ± 7.7%; inhibition at 500 µM (Sirt2_56–356 [1]): 46.9 ± 9.3%; inhibition at 2000 µM (Sirt2_56–356 [1]): 94.8 ± 3.4%; ΔTm at 1000 µM (Sirt2_56–356 [2]): 0.5 °C
